The values that follow come from patent publication US7198958B2, “Method for increasing hydrophilicity of fluorescent label compounds” (Arctic Diagnostics Oy, priority 2001, dated 2007).

Holding throughout (format): physicochemical
In data set [1] the test system is mouse IgG anti-AFP. Put plainly: Labelling of mouse IgG anti-AFP with dipyrrometheneboron difluoride dyes. The note with it: 10 fold excess of label, phosphate buffered saline pH 7.4, room temperature 2 h. The protocol:
To the solution of 1.5 mg (9.3 nmol) of mouse IgG anti-AFP in 400 μl phosphate buffered saline (10/150 mM, pH 7.4) a 10 fold excess (93 nmol) of compound 2, 4, 5 or 6 in anhydrous N,N-dimethylformamide was added. 40 μl of NaHCO3 (1 M, aq) was added and the mixture was incubated at room temperature for 2 h. The products were purified with NAP-5 gel filtration column (Amersham Pharmacia Biotech, Uppsala, Sweden) using phosphate buffered saline (50/150, 10 mM NaN3, pH 7.4) as eluent. The fast moving coloured fractions were collected. […] The labelling degrees of these protein conjugates (compound 4 and 6) were determined spectrophotometrically. Labelling degrees of 2.1 (compound 4) and 2.3 (compound 6) fluorophores per protein were obtained.

The test system of data set [2] is mouse IgG anti-AFP. Put plainly: Labelling of mouse IgG anti-AFP with rhodamine 6G labels; absorption spectrum of the conjugate. The note with it: for normal absorption band of labelled mouse IgG anti-AFP: absorption spectrum of IgG conjugate in phosphate buffered saline pH 7.4; for additional absorption band of labelled mouse IgG anti-AFP (non-fluorescent aggregates, hydrophobic interactions): absorption spectrum of IgG conjugate, equi-intense band, absent in excitation spectrum. The protocol: To the solution of 0.28 mg (1.75 nmol) of mouse IgG anti-AFP in 200 μl phosphate buffered saline (10/150 mM, pH 7.4) a 10 fold excess (17.5 nmol) of 5-carboxyrhodamine 6G succinimidyl ester (compound 15, Molecular Probes, Eugene, Oreg.) in anhydrous N,N-dimethylformamide or a 20 fold excess of Glu-Tau-succinimide derivative of 5-carboxyrhodamine 6G in acetonitrile water (reaction mixture of example 14, compound 17) was added. 40 μl of NaHCO3 (1 M, aq) was added and the mixtures were incubated at room temperature for 2 h. The products were purified with NAP-5 gel filtration column (Amersham Pharmacia Biotech, Uppsala, Sweden) using phosphate buffered saline (50/150, 10 mM NaN3, pH 7.4) as eluent. The fast moving coloured fractions were collected.
This additional absorption originates from hydrophobic interactions between the fluorophores and protein or between the two fluorophores. […] These non-fluorescent aggregates are typical for hydrophobic xanthene-type dyes (rhodamines and fluoresceins).

The test system of data set [3] is 5′-aminomodified oligonucleotide. Put plainly: Labelling of oligonucleotide; fluorescence yield of labelled oligonucleotide. The note with it: labelled oligonucleotides diluted to equimolar concentrations. The protocol: To the solution of 5′-aminomodified oligonucleotide (17 bases, 28 μg, 5 nmol) in carbonate buffer (200 μl, 100 mM, pH 8.5) a 40 fold excess of labelling reagent (compound 2 or 4) in anhydrous DMF (50 μl) was added. Reaction mixture was incubated at 22° C. for 20 h. The labelled oligonucleotides were purifed by using reverse phase HPLC (RP-18 column) and gradient elution technique. Solvents were A: 2% acetonitrile in triethylammonium acetate buffer (50 mM, pH 7) and B: 70% acetonitrile in triethylammonium acetate buffer (50 mM, pH 7). The gradient started from 5% of solvent B and the amount of solvent B linearly raised to 40% in 25 minutes. Both dye-oligonucleotide conjugates (labelled with compound 2 or with compound 4) eluted between 18 to 22 minutes while the unlabelled oligonucleotide eluted at a timepoint of 10 minutes. The unbound labelling reagent was removed from the column by increasing the amount of solvent B to 100%.
The concentrations of the labelled oligonucleotides were determined spectrophotometrically. […] The labelled oligonucleotides were diluted to equimolar concentrations and the fluorescence yields were determined. […] The higher fluorescence yield of the oligonucleotide labelled with compound 4 can be explained by increased hydrophilicity of the label compound and increased distance between the label and the oligonucleotide.

On to “4,4-difluoro-5-(2-thienyl)-1,3-dimethyl-4-bora-3a,4a-diaza-s-indacene-2-propionic acid succinimidyl ester [compound 2, reference compound]”, for which the “precipitation of the labelled proteins on labelling” value (“precipitation” below) in the data set with mouse IgG anti-AFP [1] is recorded as “almost complete precipitation of the labelled proteins”.
Same read-out and setting: next, “4,4-difluoro-(2-pyrrolyl)-1,3-dimethyl-4-bora-3a,4a-diaza-s-indacene-2-propionic acid succinimidyl ester [compound 5, reference compound]”: “almost complete precipitation of the labelled proteins”.
With `CCN=c1cc2oc3cc(NCC)c(C)cc3c(-c3ccc(C(=O)ON4C(=O)CCC4=O)cc3C(=O)O)c-2cc1C` [compound 15, 5-carboxyrhodamine 6G succinimidyl ester, reference compound], in the data set with mouse IgG anti-AFP [2], the “normal absorption band of labelled mouse IgG anti-AFP” value was 530 nm and the “additional absorption band of labelled mouse IgG anti-AFP (non-fluorescent aggregates, hydrophobic interactions)” value was found to be 504 nm.
As for “Glu-Tau-succinimide derivative of 4,4-difluoro-5-(2-pyrrolyl)-1,3-dimethyl-4-bora-3a,4a-diaza-s-indacene-2-propionic acid [compound 6]”, the “precipitation” value in the data set with mouse IgG anti-AFP [1] is listed as “proceeded without any problems”.
“Glu-Tau-succinimide derivative of 4,4-difluoro-5-(2-thienyl)-1,3-dimethyl-4-bora-3a,4a-diaza-s-indacene-2-propionic acid [compound 4]”: in the data set with mouse IgG anti-AFP [1], the “precipitation” value is “proceeded without any problems”. The “fluorescence yield of labelled oligonucleotide compared with oligonucleotide labelled with compound 2” value in data set [3] is “one order of magnitude higher”.
“Glu-Tau-succinimide derivative of 5-carboxyrhodamine 6G [compound 17]”: in the data set with mouse IgG anti-AFP [2], the “normal absorption band of labelled mouse IgG anti-AFP” value was determined as 530 nm and the “additional absorption band of labelled mouse IgG anti-AFP (non-fluorescent aggregates, hydrophobic interactions)” value is “absence of additional absorption band”.
